The source of these data is article PMC9817970 (Cancers, 2022).

Assay [1] concerns c-KIT auto-phosphorylation in c-KIT D816V Ba/F3 cells. The experiment in a line: Western blot of c-KIT signaling. The class given is cell-based. The note with it: 10 μM. As for the experimental part:
(§1) Cells were harvested and lysed using RIPA buffer containing 50 mM HEPES (pH 7.4), 1% Triton X-100, 2 mM EDTA, 150 mM NaCl, 2.5 mM NaF, 5 mM Na3VO4, and protease inhibitor cocktail tablet (Roche, # 11–878-580–001). Proteins were separated and transferred to an NC membrane. The membranes were blocked using 5% skim milk in TBS-T buffer. The p-c-KIT (Tyr703, # 3073), p-AKT (Ser473, # 9271), p-ERK (Thr202/Tyr204, # 8544), ERK (# 4695), p-PLCγ (Tyr783, # 14008), p-STAT3 (Tyr705, # 4074), and PARP (# 9542) antibodies were obtained from Cell Signaling Technologies. The β-actin (# sc-47778) and STAT3 (# sc-482) antibodies were obtained from Santa Cruz Biotechnology. AKT (A18120) antibody was purchased from ABclonal. Each primary antibody was incubated overnight at 4 °C. The secondary antibody (GenDEPOT) was incubated for 1 h at room temperature. Proteins were detected using ECL substrate.
For orientation: Immunoblotting shows a protein as a band on a membrane.

Assay [2] concerns c-KIT D816V Ba/F3 cells. As to the kind of experiment: Apoptosis analysis (annexinV/PI flow cytometry). Particulars: c-KIT D816V Ba/F3, 1 μM. The class given is cell-based. As for the experimental part:
(§2) After compound treatment in GIST-T1 and HMC1.2 cells for 24 h, cells were fixed with 70% cold ethanol. Then, cells were incubated with 50 μg propidium iodide/mL solution (PI, Sigma) containing 1 mg RNase A/mL for 30 min in the dark. Cell cycle arrest was analyzed (BD Accuri), and data were processed using BD Accuri^TM C6 software. For apoptosis analysis, compound treatment for 24–48 h, cells were harvested and stained with annexinV and PI solution. 1 × 10^5 cells were analyzed using flow cytometric analysis.
In general terms: Flow cytometry measures light scatter and fluorescence of single cells or particles in a stream.

For another assay, the target named is T1, c-KIT V560G/D816V (Homo sapiens, UniProt P10721, D816V/V560G).
T1 construct: purchased Promega VA7063
The experiment in a line: ADP-Glo kinase assay on c-KIT V560G/D816V. The class given is biochemical. The note with it: for IC50: ADP-Glo kinase assay, 10 μM ATP; for fold higher enzymatic inhibitory activity against c-KIT V560G/D816V compared with imatinib: versus imatinib. The procedure:
(§3) Biochemical kinase assays on c-KIT protein kinase were performed at Reaction Biology Corp. (San Diego, CA, USA). […] The kinase assay followed the manufacturer’s instruction. IC50 values were calculated by GraphPad prism 8.0 software (GraphPad Software, San Diego, CA, USA).

The subject of assay [3] is GIST-T1 cells. As to the kind of experiment: Migration (wound healing) assay. The class given is cell-based, human. Particulars: GIST-T1, 0.005 μM and 0.05 μM, 36 h. The procedure: GIST-T1 cells were seeded in 6-well plates at 2 × 10^6 cells. Next day, cells were washed with PBS and wounded in the center of each well. Then, GIST-T1 cells were washed with PBS and added to fresh DMEM.

Assay [4] has as its system GIST-T1 cells. As to the kind of experiment: Invasion assay (Transwell). The assay is classed as cell-based, human. Particulars: GIST-T1, 0.05 μM, 48 h. The procedure: The cell invasion assay was performed using Transwell membrane filter inserts (Corning Costar Corp., Corning, NY, USA). GIST-T1 cells were then suspended in serum-free DMEM at 2 × 10^6 cells and seeded in the upper chambers. In the lower chambers, the DMEM medium containing 10% FBS was added. After 48 h, the cells migrating down the membrane were stained with crystal violet.

The test system of assay [5] is c-KIT D816V Ba/F3 cells. The experiment in a line: Cell cycle arrest analysis (PI flow cytometry). The class given is cell-based. The note with it: c-KIT D816V Ba/F3, 0.5 μM, 24 h.
The next assay has as its system parental Ba/F3 cells. The experiment in a line: Anti-proliferative activity on Ba/F3 cells. The note with it: Mus musculus, BaF3. The class given is cell-based. As for the experimental part:
(§4) GIST-T1 (Cosmobio, Tokyo, Japan, # PMC-GIST01C-COS) cells were cultured in DMEM (Welgene, # LM001-05) and HMC1.2 (Merck, Darmstadt, Germany, # SCC062) cells were cultured in IMDM (Welgene, # LM004-01). Parental Ba/F3 (DSMZ, Braunschweig, Germany, # ACC300) cells were cultured in RPMI (Welgene, # LM011-51) with 10 ng IL-3/mL (Enzo, # ALX-201-821). The culture media was supplemented with 10% fetal bovine serum and 1% penicillin/streptomycin solution. The cells were maintained in a humidified atmosphere containing 5% CO2 at 37 °C.
(§5) Cells (GIST-T1: 5.0 × 10^3; HMC1.2: 1 × 10^4) were seeded in 96-well plates. Each compound was treated in each well at 10 dose points of 3-fold serial dilution. After treatment with each compound for 72 h, CellTiter-Glo solution (Promega, # G7572) was added to each well. Anti-proliferation activity was measured the luminescence using a 96-well plate reader (EnVision 2013).

The test system of assay [6] is HMC1.2 cells. The experiment in a line: Cell cycle arrest analysis (PI flow cytometry). Particulars: HMC1.2, 0.5 μM, 24 h. The class given is cell-based, human. As for the experimental part:
as §2

Assay [7] relates to GIST-T1 cells. As to the kind of experiment: Cell cycle arrest analysis (PI flow cytometry). The class given is cell-based, human. The note with it: GIST-T1, 0.01 μM. The procedure: as §2
Assay [8] relates to HMC1.2 cells. The experiment in a line: Apoptosis analysis (annexinV/PI flow cytometry). The assay is classed as cell-based, human. The note with it: HMC1.2, 1 μM, 48 h. As for the experimental part:
as §2

For assay [9], the system named is GIST-T1 cells. The experiment in a line: Apoptosis analysis (annexinV/PI flow cytometry). The class given is cell-based, human. The note with it: GIST-T1, 0.05 μM. As for the experimental part: as §2
Assay [10] deals with GIST-T1 cells. The experiment in a line: Cell viability assay (CellTiter-Glo). The class given is cell-based. The note with it: Homo sapiens, GISTT1; 72 h; concentration causing half-maximal growth inhibition. As for the experimental part:
as §4, §5

Assay [11] relates to HMC1.2 cells. As to the kind of experiment: Cell viability assay (CellTiter-Glo). The assay is classed as cell-based, human. The note with it: Homo sapiens, 72 h. As for the experimental part: as §4, §5
(In general: ATP-based viability assays read luminescence as a measure of living cells.)

Assay [12] relates to c-KIT D816V Ba/F3 cells. The experiment in a line: Anti-proliferative activity on Ba/F3 cells. The class given is cell-based. Particulars: Mus musculus, BaF3.
Assay [13] deals with c-KIT auto-phosphorylation in HMC1.2 cells. The experiment in a line: Western blot of c-KIT signaling. The class given is cell-based, human. The note with it: 10 μM. As for the experimental part: as §1
In assay [14] the test system is phosphorylated c-KIT (Tyr703) and downstream signaling in GIST-T1 cells. The experiment in a line: Western blot of c-KIT signaling. The class given is cell-based, human. As for the experimental part: as §1
For the next assay, the target named is c-KIT (Homo sapiens, UniProt P10721). As to the kind of experiment: Radiometric biochemical kinase assay on c-KIT. Also noted: purchased Reaction Biology Corp. (contract assay service). Particulars: read-out: IC50 against c-KIT. The procedure: as §3
Enzymatic inhibitory activities of all synthesized thiazolo[5,4-b]pyridine derivatives against c-KIT were measured using radiometric biochemical kinase assays (Table 1). We first explored the R1 group of the thiazolo[5,4-b]pyridine scaffold.

For assay [15], the system named is GIST-T1 cells. The experiment in a line: Soft agar assay (anchorage-independent growth). The assay is classed as cell-based, human. Particulars: GIST-T1, two different concentrations, 3 weeks. As for the experimental part:
Anchorage-independent growth was assessed by determining colony formation on soft agar. GIST-T1 cells in DMEM media containing 0.7% agar were plated at 5,000 cells per well. Cells were treated with each compound for 3 weeks, and the media were changed every 3 days. Colonies were stained using iodonitrotetrazolium chloride (Sigma Aldrich). The average number colonies were counted using ImageJ software (version 1.53e, National Institutes of Health, Bethesda, MD, USA)

The next assay deals with GIST. Also noted: method as in PMID 32601076. The note with it: fourth-line treatment; cited from earlier work.

Regarding `Cc1ccc(NC(=O)c2ccc(CN3CCNCC3)c(C(F)(F)F)c2)cc1-c1cnc2sc(N)nc2c1` [6s], the c-KIT auto-phosphorylation result in [1] and in [13] was “completely inhibited” throughout. For the same compound, the “production of apoptotic cells” value with c-KIT D816V Ba/F3 cells [2], with HMC1.2 cells [8] and with GIST-T1 cells [9] was “remarkably induced” in each case. For the same compound, the IC50 is 7670 ± 2640 nM against c-KIT V560G/D816V and 370 nM on c-KIT. Moreover, the “fold higher enzymatic inhibitory activity against c-KIT V560G/D816V compared with imatinib” value on c-KIT V560G/D816V was 4.9- to 8.0 fold. In addition, in the assay on GIST-T1 cells [3], the “cell migration decreased compared to control” value was 50–70%. In addition, the invasion capability result with GIST-T1 cells [4] is listed as “significantly suppressing”. Further, the “G0/G1 arrest compared with imatinib” value with c-KIT D816V Ba/F3 cells [5] and in the assay on HMC1.2 cells [6] was “more strongly” throughout. Moreover, the GI50 with parental Ba/F3 cells came to 10500 ± 3590 nM; in the assay with GIST-T1 cells [10], 20 nM; with HMC1.2 cells [11], 1330 ± 430 nM; in the assay with c-KIT D816V Ba/F3 cells [12], 1060 ± 150 nM. Moreover, the “G0/G1 arrest induced compared to control” value in the assay on GIST-T1 cells [7] is given as 25–35%. Besides, the “levels of phosphorylated c-KIT (Tyr703) and downstream mediators p-AKT, p-ERK, p-PLCγ, p-STAT3” value (“levels of phosphorylated c-KIT … p-STAT3” for short) in [14] is on record as “remarkably inhibited”.
As for `Cc1ccc(NC(=O)c2ccc(CN3CCN(C)CC3)cc2)cc1Nc1nccc(-c2cccnc2)n1` [imatinib, reference compound], the GI50 in the assay with parental Ba/F3 cells came to 17000 ± 200 nM; with HMC1.2 cells [11], 27100 ± 3360 nM; in the assay on c-KIT D816V Ba/F3 cells [12], 12200 ± 2060 nM. For the same compound, the anchorage-independent growth result in the assay with GIST-T1 cells [15] is “dramatic inhibition”. For the same compound, in the assay on GIST-T1 cells [7], the “G0/G1 arrest induced compared to control” value was 25–35%. Moreover, in the assay with HMC1.2 cells [8], the “production of apoptotic cells” value is reported as “did not induce apoptosis”. The “levels of phosphorylated c-KIT … p-STAT3” value in [14] was “remarkably inhibited”.
Consider `CCn1c(=O)c(-c2cc(NC(=O)Nc3ccccc3)c(F)cc2Br)cc2cnc(NC)cc21` [Ripretinib], for which the overall response rate in the assay with GIST was 9.4%.
Consider `CC(=O)Nc1nc2cc(-c3cc(NC(=O)c4ccc(CN5CCN(C)CC5)c(C(F)(F)F)c4)ccc3C)cnc2s1` [7c], for which the c-KIT auto-phosphorylation entry in [1] and in [13] was “completely inhibited” in each case. Further, the “production of apoptotic cells” value in the assay with c-KIT D816V Ba/F3 cells [2], in the assay with HMC1.2 cells [8] and in the assay with GIST-T1 cells [9] was “remarkably induced” each time. The IC50 was 5070 ± 710 nM against c-KIT V560G/D816V and 100 nM at c-KIT. For the same compound, the “fold higher enzymatic inhibitory activity against c-KIT V560G/D816V compared with imatinib” value at c-KIT V560G/D816V is 4.9- to 8.0 fold. In addition, the “cell migration decreased compared to control” value with GIST-T1 cells [3] was 50–70%. Further, in the assay on GIST-T1 cells [4], the invasion capability result is “significantly suppressing”. In addition, the “G0/G1 arrest compared with imatinib” value with c-KIT D816V Ba/F3 cells [5] and in the assay with HMC1.2 cells [6] was “more strongly” throughout. The GI50 turned out to be 10500 ± 3440 nM with parental Ba/F3 cells, 10 nM with GIST-T1 cells [10], 1520 ± 430 nM with HMC1.2 cells [11] and 530 ± 60 nM with c-KIT D816V Ba/F3 cells [12]. Moreover, the “G0/G1 arrest induced compared to control” value in the assay on GIST-T1 cells [7] is 25–35%. For the same compound, the “levels of phosphorylated c-KIT … p-STAT3” value in [14] is reported as “remarkably inhibited”.

For orientation: IC50 means the concentration at which inhibition is half-maximal. In general, GI50 refers to the concentration that inhibits growth by half.
